# Results taken from the supplement of paper PMC10307832.
# What was measured:
# Assay in all cases: relative viability (nuclei count vs DMSO), 5 days (fraction); higher = more cells survive
# VX-702 + Dasatinib = compound: NC(=O)c1ccc(N(C(N)=O)c2c(F)cccc2F)nc1-c1ccc(F)cc1F [VX-702] + Cc1nc(Nc2ncc(C(=O)Nc3c(C)cccc3Cl)s2)cc(N2CCN(CCO)CC2)n1 [Dasatinib] (partner 0.075 µM)
# How it was run: (§1)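 One day after seeding in 1536-well plates, lung cancer cell lines were dosed by pin tool. Dosing was either single-drug or a fixed anchor-drug dose plus five library-drug doses (not always all listed) in √10 steps. After 5 days, nuclei were stained in one fix-and-stain step and counted on 4× images, and relative viability is the nuclei count of treated wells over that of vehicle wells, given as the median of duplicate plates.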
# Dabrafenib + Palbociclib = compound: CC(C)(C)c1nc(-c2cccc(NS(=O)(=O)c3c(F)cccc3F)c2F)c(-c2ccnc(N)n2)s1 [Dabrafenib] + CC(=O)c1c(C)c2cnc(Nc3ccc(N4CCNCC4)cn3)nc2n(C2CCCC2)c1=O [Palbociclib] (partner 0.5 µM)
# How it was run: as §1
# Dabrafenib + Pemetrexed = compound: CC(C)(C)c1nc(-c2cccc(NS(=O)(=O)c3c(F)cccc3F)c2F)c(-c2ccnc(N)n2)s1 [Dabrafenib] + Nc1nc2[nH]cc(CCc3ccc(C(=O)N[C@@H](CCC(=O)O)C(=O)O)cc3)c2c(=O)[nH]1 [Pemetrexed] (partner 0.2 µM)
# How it was run: as §1
# VX-702 + Vorinostat = compound: NC(=O)c1ccc(N(C(N)=O)c2c(F)cccc2F)nc1-c1ccc(F)cc1F [VX-702] + O=C(CCCCCCC(=O)Nc1ccccc1)NO [Vorinostat] (partner 1 µM)
# How it was run: as §1
# VX-702 + Trametinib = compound: NC(=O)c1ccc(N(C(N)=O)c2c(F)cccc2F)nc1-c1ccc(F)cc1F [VX-702] + CC(=O)Nc1cccc(-n2c(=O)n(C3CC3)c(=O)c3c(Nc4ccc(I)cc4F)n(C)c(=O)c(C)c32)c1 [Trametinib] (partner 0.02 µM)
# How it was run: as §1
cell line,measurement,setting,value
SW 900,relative viability,VX-702 + Dasatinib; first compound 0.02 µM,0.541
same,relative viability,VX-702 + Dasatinib; first compound 0.2 µM,0.664
same,relative viability,VX-702 + Dasatinib; first compound 0.6325 µM,0.56
same,relative viability,VX-702 + Dasatinib; first compound 2 µM,0.818
same,relative viability,Dabrafenib + Palbociclib; first compound 0.009487 µM,0.532
same,relative viability,Dabrafenib + Palbociclib; first compound 0.09487 µM,0.523
same,relative viability,Dabrafenib + Palbociclib; first compound 0.3 µM,0.58
same,relative viability,Dabrafenib + Pemetrexed; first compound 0.009487 µM,0.494
same,relative viability,Dabrafenib + Pemetrexed; first compound 0.09487 µM,0.477
same,relative viability,Dabrafenib + Pemetrexed; first compound 0.3 µM,0.45
same,relative viability,VX-702 + Vorinostat; first compound 0.02 µM,0.492
same,relative viability,VX-702 + Vorinostat; first compound 0.2 µM,0.444
same,relative viability,VX-702 + Vorinostat; first compound 0.6325 µM,0.558
same,relative viability,VX-702 + Vorinostat; first compound 2 µM,0.516
same,relative viability,VX-702 + Trametinib; first compound 0.02 µM,0.775
same,relative viability,VX-702 + Trametinib; first compound 0.2 µM,0.871
same,relative viability,VX-702 + Trametinib; first compound 0.6325 µM,0.856
same,relative viability,VX-702 + Trametinib; first compound 2 µM,0.795
